From patent US6107549A, “Genetically engineered plant resistance to thiazopyr and other pyridine herbicides” (Monsanto Company, priority 1999, dated 2000)

Experiments:
RLE3 = target: T1, RLE3 (Oryctolagus cuniculus, UniProt P12337, A196R/H30K); test: Esterase activity of RLE3 cDNA expressed in insect cells; format: biochemical, rabbit; conditions: culture media from SF9 cells containing RLE3 cDNA
T1 construct: 19-residue synthetic ER signal peptide (design based on the homologous rat esterase, Robbi et al. 1990; Ala added after Met) (N); made in house; host or cells: Spodoptera frugiperda SF9 cells, baculovirus
T1 sequence (P12337 with tags, fused parts or gaps H30K/A196R): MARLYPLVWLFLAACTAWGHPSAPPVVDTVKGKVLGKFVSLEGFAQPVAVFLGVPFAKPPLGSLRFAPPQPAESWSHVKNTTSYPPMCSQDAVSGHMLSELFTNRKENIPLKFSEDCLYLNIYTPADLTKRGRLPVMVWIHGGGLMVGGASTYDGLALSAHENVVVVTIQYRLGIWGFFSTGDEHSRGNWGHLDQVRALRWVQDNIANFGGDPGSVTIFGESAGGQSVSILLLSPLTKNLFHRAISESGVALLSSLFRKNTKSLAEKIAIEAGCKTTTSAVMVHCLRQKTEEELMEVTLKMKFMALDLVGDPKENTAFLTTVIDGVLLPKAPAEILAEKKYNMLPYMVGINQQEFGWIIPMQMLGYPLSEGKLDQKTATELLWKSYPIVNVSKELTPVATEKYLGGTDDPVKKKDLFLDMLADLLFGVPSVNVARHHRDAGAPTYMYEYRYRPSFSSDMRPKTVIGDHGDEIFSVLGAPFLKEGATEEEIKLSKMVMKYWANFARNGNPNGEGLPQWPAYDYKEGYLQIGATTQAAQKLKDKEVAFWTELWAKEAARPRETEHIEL
Experimental: Esterase activity assays. Esterase activity was measured in vitro by conversion of either [^14 C]thiazopyr or [^14 C]MON 14300 to their corresponding monoacid. Pyridine-esterase activity was assayed during protein purification and from tissue extracts of transgenic plants. The homogenizing buffer for plant tissues consisted of 100 mM Tris pH 8.0, 1 mM EDTA, 1 mM DTT, and 10% glycerol in water. Plant tissues (1 g/ml buffer) including leaves, seeds, flowers, seedlings, etc. were homogenized in conical centrifuge tubes using a spinning pestle at 4° C. Following centrifugation (12,000× g), the supernatant (250 μl) was assayed immediately for esterase activity by incubation with [^14 C]thiazopyr or [^14 C]MON 14300 (4 μg) in 0.1 M Tris pH 8.0 buffer (50 μl) at 37° C. The reaction was sampled (100 μL) at various times (0.5 to 100 hr) to generate a kinetic profile of monoacid formation. The reaction was stopped by addition of 1% trifluoroacetic acid in acetonitrile (v/v, 150 μl). Following centrifugation (12,000× g for 3 min), the supernatant was analyzed by HPLC/RAD (radioactivity detection) to resolve the monoacid from the parent herbicide and other metabolites. Control reactions in the absence of the esterase recovered un-reacted thiazopyr or MON 14300 for the duration of experiments. Esterase activity was also assayed during protein purification following a similar procedure except a single time-point (1-2 hrs) of incubation was selected within the linear range of reaction. In vitro assays also employed three commonly used calorimetric (p-nitrophenyl butyrate) or fluorescent (4-methyl umbelliferyl butyrate and 5-bromo-4-chloro-3-indolylacetate) substrates. These substrates are useful in rapidly and qualitatively detecting general esterase activity.
Expression of RLE1 and RLE3 cDNAs in insect cells. Mature rabbit liver esterases are glycoproteins which reside in the lumen of the endoplasmic reticulum (ER) (Korza et al., 1988). […]

rabbit liver esterase = test: Pyridine-esterase activity assay with rabbit liver esterase; format: biochemical; conditions: commercially available rabbit liver esterase
Experimental: Esterase activity assays. Esterase activity was measured in vitro by conversion of either [^14 C]thiazopyr or [^14 C]MON 14300 to their corresponding monoacid. Pyridine-esterase activity was assayed during protein purification and from tissue extracts of transgenic plants. The homogenizing buffer for plant tissues consisted of 100 mM Tris pH 8.0, 1 mM EDTA, 1 mM DTT, and 10% glycerol in water. Plant tissues (1 g/ml buffer) including leaves, seeds, flowers, seedlings, etc. were homogenized in conical centrifuge tubes using a spinning pestle at 4° C. […] Following centrifugation (12,000× g for 3 min), the supernatant was analyzed by HPLC/RAD (radioactivity detection) to resolve the monoacid from the parent herbicide and other metabolites. […]
Purification of pyridine-esterases from porcine and rabbit liver. […] Effluent was monitored by UV (280 nm) and fractions were collected at 1 ml intervals. […] Protein purity was determined by SDS-PAGE on 10 to 15% gradient gels (Pharmacia Biotech) with visualization of proteins by silver staining.
Following anion exchange chromatography, fractions with the highest purity and activity were pooled. […] Effluent fractions from IEF chromatography were analyzed for protein and pyridine-esterase activity. The protein purity of the fractions was determined by SDS-PAGE and IEF-PAGE.

| Structure (SMILES) | esterase activity against substrate (RLE3) | esterase activity against substrate (rabbit liver esterase) |
| --- | --- | --- |
| COC(=O)c1c(C(F)F)nc(C(F)(F)F)c(C(=O)n2cccn2)c1CC(C)C [MON 14300] | demonstrated esterase activity | active |
| COC(=O)c1c(C(F)F)nc(C(F)(F)F)c(C2=NCCS2)c1CC(C)C [thiazopyr] | demonstrated esterase activity | active |
